Laboratory results from patent publication US20230073214A1, “BIOACTIVE RELEASING MEMBRANE FOR ANALYTE SENSOR” (DexCom, Inc., priority 2021, published 2023).

Columns and labels:
[1] = in vitro bioactive release profile of dexamethasone acetate from bioactive releasing membrane 70 (percent cumulative release by HPLC); type: physicochemical; conditions: over a time span of 16-35 days
Protocol: With reference to FIG. 5A, an exemplary in vitro bioactive release profiles for dexamethasone acetate is shown using exemplary bioactive releasing membrane 70. The percent cumulative release of dexamethasone acetate can be determined using HPLC, for example using a Phenomenex Kinetex 5μ EVO C18 100 Å, 50×3.0 mm column held at 25° C. with a 254 nm UV detector and an elution gradient of A: Water with 0.1% formic acid/B: Acetonitrile with 0.1% formic acid (vol/vol), where the gradient from time 0 to 2 minutes is 90% A/10% B; from 2-5 minutes is 10% A/90% B; and from 5 minutes is 90% A/10% B. Dexamethasone acetate and dexamethasone HPLC standards are prepared at concentrations of about 0.1-20 ug/mL.
With reference to FIG. 5B, experimental data of a release rate of a bioactive agent (dexamethasone acetate) from a bioactive releasing membrane 70 initially or during the first time period being greater than the release rate of the bioactive agent from the bioactive releasing membrane initially or during the second time period and the release rate of the bioactive agent from the bioactive releasing membrane initially or during the second time period is greater than the release rate of the bioactive agent from the bioactive releasing membrane initially or during the third time period is shown. […]

[2] = additional release experiments with dexamethasone salts in different bioactive releasing membrane combinations; type: physicochemical; conditions: in a water-soluble cellulosic based polymer
Protocol: Additional experiments were carried out using dexamethasone salts in different bioactive releasing membrane combinations.

| SMILES | third release rate: release of the remaining amount [1] | release profile [2] |
| --- | --- | --- |
| CC(=O)OCC(=O)[C@@]1(O)[C@H](C)C[C@H]2[C@@H]3CCC4=CC(=O)C=C[C@]4(C)[C@@]3(F)[C@@H](O)C[C@@]21C [dexamethasone acetate] | approximately 10% |  |
| C[C@@H]1C[C@H]2[C@@H]3CCC4=CC(=O)C=C[C@]4(C)[C@@]3(F)[C@@H](O)C[C@]2(C)[C@@]1(O)C(=O)COP(=O)(O)O [dexamethasone sodium phosphate] |  | bolus release profile |
